pIC50: −log10 of the molar value. Where two headings read alike, the source gives them in different places.
What was measured:
pregnancy maintenance = assay: Gestagen activity in pregnancy maintenance test; assay type: in vivo; settings: mouse
5α-reductase-Type-2 = target: T1, 5α-reductase-Type-2 (Homo sapiens, UniProt P31213); assay: 5α-reductase-Type-2 activity in genital skin homogenates; assay type: biochemical; settings: optimum conditions at pH=5.5
T1 construct: Under optimum conditions at pH=5.5 in genital skin homogenates; from tissue; host or cells: genital skin homogenates
T1 sequence (P31213 1-254): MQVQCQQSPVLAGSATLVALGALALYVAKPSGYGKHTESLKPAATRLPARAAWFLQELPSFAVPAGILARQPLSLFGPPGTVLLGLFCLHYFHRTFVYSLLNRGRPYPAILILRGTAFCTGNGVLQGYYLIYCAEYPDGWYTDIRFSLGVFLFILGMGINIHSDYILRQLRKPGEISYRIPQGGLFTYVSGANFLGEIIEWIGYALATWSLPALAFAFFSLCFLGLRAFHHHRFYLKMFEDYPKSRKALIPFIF
Description: Subsequently experimental data for progesterone receptor binding, 5α-reductase-type-2 activity in genital skin homogenates and in vivo data in the case of the exemplary compound of the invention, (E)-17α-fluoro-3-oxo-estra-4-en-17β-carbaldehyde oxime, are reported here.

PR-B = target: T2, PR-B (Homo sapiens, UniProt P06401); assay: PR-B antagonisms and agonisms; assay type: cell-based
T2 sequence (P06401 1-933): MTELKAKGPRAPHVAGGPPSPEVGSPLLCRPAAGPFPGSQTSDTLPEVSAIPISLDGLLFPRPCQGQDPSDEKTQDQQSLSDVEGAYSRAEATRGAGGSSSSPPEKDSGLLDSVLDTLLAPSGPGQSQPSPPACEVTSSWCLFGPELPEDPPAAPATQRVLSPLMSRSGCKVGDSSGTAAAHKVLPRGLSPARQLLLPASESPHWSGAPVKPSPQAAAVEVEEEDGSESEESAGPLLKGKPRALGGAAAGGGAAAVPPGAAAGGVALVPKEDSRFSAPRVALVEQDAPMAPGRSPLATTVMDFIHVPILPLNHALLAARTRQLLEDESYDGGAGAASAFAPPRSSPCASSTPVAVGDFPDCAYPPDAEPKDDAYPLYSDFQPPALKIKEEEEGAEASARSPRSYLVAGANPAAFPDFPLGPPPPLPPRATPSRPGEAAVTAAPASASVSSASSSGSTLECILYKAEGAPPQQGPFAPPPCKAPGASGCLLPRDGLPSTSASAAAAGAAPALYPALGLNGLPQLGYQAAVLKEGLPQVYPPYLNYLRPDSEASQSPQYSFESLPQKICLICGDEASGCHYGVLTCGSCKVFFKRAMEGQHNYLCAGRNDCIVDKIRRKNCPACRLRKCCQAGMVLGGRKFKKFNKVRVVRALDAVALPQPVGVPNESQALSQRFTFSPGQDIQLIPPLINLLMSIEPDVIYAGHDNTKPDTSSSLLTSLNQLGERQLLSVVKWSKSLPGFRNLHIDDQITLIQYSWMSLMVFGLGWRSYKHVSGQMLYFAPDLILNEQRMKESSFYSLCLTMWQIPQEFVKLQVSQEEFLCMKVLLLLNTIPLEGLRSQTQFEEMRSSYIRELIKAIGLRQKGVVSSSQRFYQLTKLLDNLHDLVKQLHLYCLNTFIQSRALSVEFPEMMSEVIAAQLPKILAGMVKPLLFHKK

Progesterone Receptor = target: T3, Progesterone Receptor (Oryctolagus cuniculus, UniProt P06186); assay: Binding to progesterone receptor, uterus cytosol, tracer 3H-ORG 2058; settings: rabbit uterus cytosol, 0–4° C., 18 h, Progesterone=100%
T3 construct: Biological material: Uterus cytosol, rabbit, pressed; from tissue; host or cells: rabbit uterus cytosol
T3 sequence (P06186 1-930): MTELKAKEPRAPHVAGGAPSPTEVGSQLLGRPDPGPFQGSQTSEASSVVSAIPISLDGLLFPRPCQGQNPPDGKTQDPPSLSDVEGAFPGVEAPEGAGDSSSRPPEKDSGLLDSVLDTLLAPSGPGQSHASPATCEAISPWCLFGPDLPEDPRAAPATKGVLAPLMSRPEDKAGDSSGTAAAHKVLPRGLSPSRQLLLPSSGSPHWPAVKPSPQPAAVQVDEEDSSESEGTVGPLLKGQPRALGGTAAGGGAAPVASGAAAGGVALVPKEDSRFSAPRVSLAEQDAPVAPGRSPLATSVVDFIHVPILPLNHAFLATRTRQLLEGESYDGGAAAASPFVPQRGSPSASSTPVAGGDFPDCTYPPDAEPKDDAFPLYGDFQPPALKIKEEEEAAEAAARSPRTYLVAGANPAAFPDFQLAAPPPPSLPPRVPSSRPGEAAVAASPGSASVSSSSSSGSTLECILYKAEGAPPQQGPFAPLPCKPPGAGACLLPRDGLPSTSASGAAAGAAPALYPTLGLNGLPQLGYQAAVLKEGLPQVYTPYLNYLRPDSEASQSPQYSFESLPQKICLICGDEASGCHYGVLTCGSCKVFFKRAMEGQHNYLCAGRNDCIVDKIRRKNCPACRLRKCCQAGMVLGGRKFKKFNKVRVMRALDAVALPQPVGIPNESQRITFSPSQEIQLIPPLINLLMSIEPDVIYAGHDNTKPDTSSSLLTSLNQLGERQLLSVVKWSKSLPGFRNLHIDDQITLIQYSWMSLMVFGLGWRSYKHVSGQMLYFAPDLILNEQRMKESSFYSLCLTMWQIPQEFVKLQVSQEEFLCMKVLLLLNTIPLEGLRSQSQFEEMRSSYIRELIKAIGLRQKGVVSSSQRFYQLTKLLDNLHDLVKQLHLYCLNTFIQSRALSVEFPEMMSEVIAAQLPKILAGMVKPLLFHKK
Description: Binding of Compound I to Progesterone Receptor

## C[C@]12CCC3C4CCC(=O)C=C4CCC3C1CC[C@]2(F)/C=N/O (stereo partly drawn) [Compound 7, (E)-17α-fluoro-3-oxo-estra-4-en-17β-carbaldehyde oxime]
Pregnancy maintenance; dosage 0.003 Mg/animal/day
  Rate of Maintained Gravidity: 0/3
Pregnancy maintenance; dosage 0.03 Mg/animal/day
  Rate of Maintained Gravidity: 2/2
Pregnancy maintenance; dosage 0.3 Mg/animal/day
  Rate of Maintained Gravidity: 3/3
5α-reductase-Type-2
  pIC50: 6.61
PR-B; PR-B agonism, read-out: Agonism IC50
  pIC50: 9.60
PR-B; PR-B antagonism, read-out: Antagonism IC50
  pIC50: 9.47

## CC(=O)[C@H]1CC[C@H]2[C@@H]3CCC4=CC(=O)CC[C@]4(C)[C@H]3CC[C@]12C [Progesterone]
Progesterone Receptor
  Relative Binding affinity RBA: 100%
